From patent US9968582B2, “Use of a benzoate containing composition in urea cycle disorders and neurodegenerative disorders” (Rush University Medical Center, priority 2014, dated 2018)

Experiments:
[1] = test system: DJ-1; assay: MPTP mouse model of PD, Western blot of DJ-1 in the nigra; type: in vivo, mice; conditions: oral GTB in MPTP-intoxicated mice, dose-dependent; FIG. 9A-B
Protocol: Six- to eight-week old C57BL/6 mice were purchased from Harlan (Indianapolis, Ind.). For acute MPTP intoxication, mice received four intraperitoneal (i.p.) injections of MPTP-HCl (18 mg/kg of free base; Sigma Chemical Co., St. Louis, Mo.) in saline at 2-h intervals. Control animals received only saline.
GTB was mixed in 0.5% methylcellulose (MC) and from 3 h after the last injection of MPTP, mice were gavaged 100 μL GTB-mixed MC once daily using gavage needle. Therefore, control MPTP mice received only MC as vehicle.
Immunoblot analysis for DJ-1 and TH was carried out. Briefly, cell homogenates were electrophoresed, proteins were transferred onto a nitrocellulose membrane, and bands were visualized with an Odyssey infrared scanner after immunolabeling with respective primary antibodies followed by infra-red fluorophore-tagged secondary antibody (Invitrogen).
Upregulation and/or maintenance of PD-related beneficial protein such as DJ-1 in the nigra during neurodegenerative insults may have therapeutic efficacy in PD.

[2] = test system: IL-1β; assay: Expression of IL-1β in spinal cord of EAE mice (RT-PCR); type: in vivo; conditions: FIG. 4D-F
Protocol: (§1) Total RNA was isolated from splenic T cells and spinal cord by using the RNeasy mini kit (Qiagen, Valencia, Calif.) and from spleen and cerebellum by using the Ultraspec-II RNA reagent (Biotecx laboratories, Inc, Houston, Tex.) following manufacturer's protocol. To remove any contaminating genomic DNA, total RNA was digested with DNase. Semi-quantitative RT-PCR was carried out using a RT-PCR kit from Clonetech (Mountain View, Calif.). Briefly, 1 μg of total RNA was reverse transcribed using oligo(dT)12-18 as primer and MMLV reverse transcriptase (Clontech) in a 20 μL reaction mixture. The resulting cDNA was appropriately-diluted, and diluted cDNA was amplified using Titanium Taq DNA polymerase and following primers. Amplified products were electrophoresed on a 1.8% agarose gels and visualized by ethidium bromide staining.
(§2) The relative expression of each gene with respect to GAPDH was measured after scanning the bands with a Fluor Chem 8800 Imaging System (Alpha Innotech, San Leandro, Calif.).
Real-time PCR analysis was performed using the ABI-Prism7700 sequence detection system (Applied Biosystems, Foster City, Calif.). […] Data were processed by the ABI Sequence Detection System 1.6 software and analyzed by ANOVA. […]

[3] = test system: Foxp3+CD4+ population of T cells; assay: Flow cytometry of Tregs in splenocytes of EAE mice; type: in vivo; conditions: FIG. 7A-D
Protocol: Two-color flow cytometry was performed as described previously. Briefly, 1×10^6 lymph node cells (LNC) or splenocytes suspended in flow staining buffer were incubated at 4° C. with appropriately diluted FITC-labeled Ab to CD4 for 30 min, washed, and re-suspended in fixation and permeabilization solution. Following incubation in dark for 30 min, cells were washed, blocked with test Fc block (anti-mouse CD16/32) in permeabilization buffer, and subsequently incubated with appropriately diluted PE-labeled Abs to Foxp3 at 4° C. in the dark. After incubation, the cell suspension was centrifuged, washed thrice, and re-suspended in flow staining buffer. The cells then were analyzed through FACS (BD Biosciences, San Jose, Calif.). Cells were gated based on morphological characteristics. Apoptotic and necrotic cells were not accepted for FACS analysis.
Since TGF-β is involved in the differentiation of non-Tregs into Tregs, the inventor monitored the status of Tregs in EAE mice. A major population of Tregs is characterized by a transcription factor FoxP3. During autoimmune insults, Tregs become both numerically and functionally defective. Therefore, as expected, the inventor observed significant reduction in Foxp3+CD4+ population of T cells in EAE splenocytes as evident from FACS dot plot (FIG. 7A-B). […]

[4] = test system: encephalitogenic T cells; assay: Generation of encephalitogenic T cells in GTB-treated donor mice, adoptive transfer; type: in vivo; conditions: donor mice treated with GTB 50 mg/kg body wt/d orally from day of MBP immunization; vs untreated or vehicle-treated donors; FIG. 2
[5] = test system: proteolipid protein (PLP); assay: Myelin gene mRNA expression in spinal cord of EAE mice: PLP; type: in vivo; conditions: FIG. 5C-E
Protocol: as §1, with “The resulting cDNA was appropriately-diluted, and diluted cDNA was amplified using Titanium Taq DNA polymerase and following primers. Amplified products were electrophoresed on a 1.8% agarose gels and visualized by ethidium bromide staining.” left out
as §2
(§3) Real-time PCR analysis was performed using the ABI-Prism7700 sequence detection system (Applied Biosystems, Foster City, Calif.). […] Data were processed by the ABI Sequence Detection System 1.6 software and analyzed by ANOVA.
(§4) Demyelination is the most important pathological feature in MS, which is also modeled in EAE animals. […] To confirm this finding, the inventor monitored the expression of […] myelin genes, myelin basic protein (MBP) and proteolipid protein (PLP), and observed a marked loss of mRNA expression of these genes in the spinal cord of untreated EAE mice compared to control mice (FIG. 5C-E).

[6] = test system: myelin basic protein (MBP); assay: Myelin gene mRNA expression in spinal cord of EAE mice: MBP; type: in vivo; conditions: FIG. 5C-E
Protocol: as §1, with “The resulting cDNA was appropriately-diluted, and diluted cDNA was amplified using Titanium Taq DNA polymerase and following primers. Amplified products were electrophoresed on a 1.8% agarose gels and visualized by ethidium bromide staining.” left out
as §2, §3, §4

[7] = test system: spinal cord of EAE mice; assay: Luxol fast blue staining for myelin, spinal cord of EAE mice; type: in vivo; conditions: FIG. 5A-B
Protocol: Sections were stained with Luxol fast blue for myelin as described earlier. Slides were assessed in a blinded fashion for demyelination by three examiners using the following scale: 0, normal white matter; 1, rare foci; 2, a few areas of demyelination; and 3, large areas of demyelination. At least six serial sections of each spinal cord from each of five mice per group were scored and statistically analyzed by ANOVA.
Demyelination is the most important pathological feature in MS, which is also modeled in EAE animals. Therefore, the inventor examined whether GTB protected EAE mice from demyelination. The inventor stained spinal cord sections by luxol fast blue (LFB) for myelin and observed widespread demyelination zones in the white matter (FIG. 5A-B). […] In contrast, vehicle was unable to restore myelin level in spinal cord of EAE mice (FIG. 5A-B). To confirm this finding, the inventor monitored the expression of […] myelin genes, myelin basic protein (MBP) and proteolipid protein (PLP), and observed a marked loss of mRNA expression of these genes in the spinal cord of untreated EAE mice compared to control mice (FIG. 5C-E).

[8] = Observation of drug related side effects in mice; type: in vivo; conditions: any of the mice used during the course of the study
[9] = test system: female SJL/J mice; assay: Adoptively-transferred RR-EAE, clinical symptoms; type: in vivo; conditions: for clinical symptoms (mean clinical score): FIG. 1A

Question: With O=C(OCC(COC(=O)c1ccccc1)OC(=O)c1ccccc1)c1ccccc1 [GTB, glyceryl tribenzoate] as the compound, how does the “level of DJ-1 in the nigra” value [1] read?
Answer: protected DJ-1 in the nigra

Question: What about the “expression of IL-1β in the spinal cord” value [2] of the same compound?
Answer: dramatically reduced the expression

Question: What about the “Foxp3+CD4+ population in splenocytes” value [3] of the same compound?
Answer: led to the increase in Foxp3+CD4+ population

Question: And the “clinical symptoms and disease severity of recipient mice” value [4]?
Answer: significantly reduced clinical symptoms and disease severity

Question: What about the “PLP mRNA expression in the spinal cord” value [5] of the same compound?
Answer: significant restoration of myelin gene mRNA expression

Question: And the “MBP mRNA expression in the spinal cord” value [6]?
Answer: significant restoration of myelin gene mRNA expression

Question: What about the “myelin level in the spinal cord (LFB)” value [7] of the same compound?
Answer: remarkably restored myelin level

Question: What about the “drug related side effect (e.g. hair loss, weight loss, untoward infection)” value [8] of the same compound?
Answer: did not notice any drug related side effect

Question: And the “clinical symptoms (mean clinical score)” value ([9]; GTB 25 mg/kg body wt/d by gavage once daily from 8 dpt)?
Answer: significantly inhibited clinical symptoms

Question: What about the “clinical symptoms (mean clinical score)” value ([9]; GTB 50 mg/kg body wt/d by gavage from 8 dpt, acute and chronic phases) of the same compound?
Answer: dramatic inhibition of clinical symptoms

Question: What about the “clinical symptoms (mean clinical score)” value ([9]; GTB 100 mg/kg body wt/d by gavage from 8 dpt) of the same compound?
Answer: less potent than either 50 mg/kg body wt/d

Question: What about the “clinical symptoms of adoptively-transferred RR-EAE” value ([9]; GTB treatment, TGF-β blocking experiment, FIG. 8) of the same compound?
Answer: ameliorated clinical symptoms

Question: And the “dose that significantly suppressed clinical symptoms of EAE” value ([9]; dose-dependent study, oral GTB)?
Answer: ≥ 25 mg/kg body wt/d
